Experimental findings from US7411083B2, “Substituted acetic acid derivatives” (Wyeth, priority 2003, dated 2008) are described below.

The target in the test is T1, recombinant human plasminogen activator inhibitor-1 (PAI-1) (Homo sapiens, UniProt P05121).
T1 construct: purchased Molecular Innovations, Royal Oak, Mich
T1 sequence (P05121 24-402): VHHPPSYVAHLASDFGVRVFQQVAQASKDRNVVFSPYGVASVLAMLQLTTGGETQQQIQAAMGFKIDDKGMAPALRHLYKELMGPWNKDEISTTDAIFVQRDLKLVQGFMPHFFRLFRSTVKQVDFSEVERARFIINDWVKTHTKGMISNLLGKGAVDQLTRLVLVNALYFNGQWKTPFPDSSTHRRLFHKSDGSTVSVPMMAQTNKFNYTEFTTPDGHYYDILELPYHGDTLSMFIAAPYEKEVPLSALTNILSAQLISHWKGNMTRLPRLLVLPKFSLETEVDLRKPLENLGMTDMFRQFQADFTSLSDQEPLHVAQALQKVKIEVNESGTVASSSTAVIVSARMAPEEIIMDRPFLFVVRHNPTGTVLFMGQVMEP
The test can be described thus: Screening for PAI-1 inhibition (residual tPA activity, Spectrozyme-tPA chromogenic substrate). Format: biochemical. Particulars: test compound at 100 Um; pH 6.6 buffer, 140 nM PAI-1, 70 nM tPA. The procedure:
Screening for PAI-1 inhibition. Test compounds are dissolved in DMSO at a final concentration of 10 Mm, then diluted 100× in physiologic buffer. The inhibitory assay is initiated by the addition of the test compound (1-100 μM final concentration, maximum DMSO concentration of 0.2%) in a Ph 6.6 buffer containing 140 Nm recombinant human plasminogen activator inhibitor-1 (PAI-1; Molecular Innovations, Royal Oak, Mich.). Following a 1 hour incubation at room temperature, 70 Nm of recombinant human tissue plasminogen activator (Tpa) is added, and the combination of the test compound, PAI-1 and Tpa is incubated for an additional 30 minutes. Following the second incubation, Spectrozyme-Tpa (American Diagnostica, Greenwich, Conn.), a chromogenic substrate for Tpa, is added and absorbance read at 405 nm at 0 and 60 minutes. Relative PAI-1 inhibition is equal to the residual Tpa activity in the presence of the test compounds and PAI-1. Control treatments include the complete inhibition of Tpa by PAI-1 at the molar ratio employed (2:1), and the absence of any effect of the test compound on Tpa alone.
In the case of `C=CCn1cc(/C=N/OCC(=O)O)c2cc(OCc3ccc(C(F)(F)F)cc3)ccc21` [Compound 1, ({[(1E)-(1-allyl-5-{[4-(trifluoromethyl)benzyl]oxy}-1H-indol-3-yl)methylidene]amino}oxy)acetic acid], the inhibition (in general, the relative decrease from the control value, in per cent) at 100 µM is 86%.
Under `CCn1cc(/C=N/OCC(=O)O)c2cc(OCc3ccc(C(F)(F)F)cc3)ccc21` [Compound 2, ({[(1E)-(1-ethyl-5-{[4-(trifluoromethyl)benzyl]oxy}-1H-indol-3-yl)methylidene]amino}oxy)acetic acid] stands 83%; under `C=CCn1cc(/C=N/OCC(=O)O)c2cc(OCc3ccc(C(C)(C)C)cc3)ccc21` [Compound 4, {[((1E)-{1-allyl-5-[(4-tert-butylbenzyl)oxy]-1H-indol-3-yl}methylidene)amino]oxy}acetic acid], 83%; under `CCn1cc(/C=N/OCC(=O)O)c2cc(OCc3ccc(C(C)(C)C)cc3)ccc21` [Compound 5, {[((1E)-{5-[(4-tert-butylbenzyl)oxy]-1-ethyl-1H-indol-3-yl}methylidene)amino]oxy}acetic acid], 93%.
Under `CC(C)(C)c1ccc(COc2ccc3c(c2)c(/C=N/OCC(=O)O)cn3Cc2ccccc2)cc1` [Compound 6, {[((1E)-{1-benzyl-5-[(4-tert-butylbenzyl)oxy]-1H-indol-3-yl}methylidene)amino]oxy}acetic acid] stands 68%; under `C=CCn1cc(/C=N/OCC(=O)O)c2cc(OCc3ccc(Br)cc3)ccc21` [Compound 7, {[((1E)-{1-allyl-5-[(4-bromobenzyl)oxy]-1H-indol-3-yl}methylidene)amino]oxy}acetic acid], 83%; under `CCn1cc(/C=N/OCC(=O)O)c2cc(OCc3ccc(Br)cc3)ccc21` [Compound 8, {[((1E)-{5-[(4-bromobenzyl)oxy]-1-ethyl-1H-indol-3-yl}methylidene)amino]oxy}acetic acid], 63%.
Under `C=CCn1cc(/C=N/OCC(=O)O)c2cc(OCc3cc(C(F)(F)F)cc(C(F)(F)F)c3)ccc21` [Compound 10, ({[(1E)-(1-allyl-5-{[3,5-bis(trifluoromethyl)benzyl]oxy}-1H-indol-3-yl)methylidene]amino}oxy)acetic acid] stands 86%.
As to `CCn1cc(/C=N/OCC(=O)O)c2cc(OCc3cc(C(F)(F)F)cc(C(F)(F)F)c3)ccc21` [Compound 11, ({[(1E)-(5-{[3,5-bis(trifluoromethyl)benzyl]oxy}-1-ethyl-1H-indol-3-yl)methylidene]amino}oxy)acetic acid], the inhibition at 100 µM is 71%.
Under `O=C(O)CO/N=C/c1cn(Cc2ccccc2)c2ccc(OCc3cc(C(F)(F)F)cc(C(F)(F)F)c3)cc12` [Compound 12, ({[(1E)-(1-benzyl-5-{[3,5-bis(trifluoromethyl)benzyl]oxy}-1H-indol-3-yl)methylidene]amino}oxy)acetic acid] stands 57%; under `C=CCn1cc(/C=N/OCC(=O)O)c2cc(OCc3cccc(Br)c3)ccc21` [Compound 13, {[((1E)-{1-allyl-5-[(3-bromobenzyl)oxy]-1H-indol-3-yl}methylidene)amino]oxy}acetic acid], 95%; under `CCn1cc(/C=N/OCC(=O)O)c2cc(OCc3cccc(Br)c3)ccc21` [Compound 14, {[((1E)-{5-[(3-bromobenzyl)oxy]-1-ethyl-1H-indol-3-yl}methylidene)amino]oxy}acetic acid], 80%.
The figure for `O=C(O)CO/N=C/c1cn(Cc2ccccc2)c2ccc(OCc3cccc(Br)c3)cc12` [Compound 15, {[((1E)-{1-benzyl-5-[(3-bromobenzyl)oxy]-1H-indol-3-yl}methylidene)amino]oxy}acetic acid] is 71%; for `C=CCn1cc(/C=N/OCC(=O)O)c2cc(OCc3cccc(Cl)c3)ccc21` [Compound 16, {[((1E)-{1-allyl-5-[(3-chlorobenzyl)oxy]-1H-indol-3-yl}methylidene)amino]oxy}acetic acid] it is 58%; for `CCn1cc(/C=N/OCC(=O)O)c2cc(OCc3cccc(Cl)c3)ccc21` [Compound 17, {[((1E)-{5-[(3-chlorobenzyl)oxy]-1-ethyl-1H-indol-3-yl}methylidene)amino]oxy}acetic acid] it is 68%.
On to `O=C(O)CO/N=C/c1cn(Cc2ccccc2)c2ccc(OCc3cccc(Cl)c3)cc12` [Compound 18, {[((1E)-{1-benzyl-5-[(3-chlorobenzyl)oxy]-1H-indol-3-yl}methylidene)amino]oxy}acetic acid], for which the inhibition at 100 µM was 84%.
On to `C=CCn1cc(/C=N/OCC(=O)O)c2cc(OCc3ccc(C)cc3)ccc21` [Compound 19, {[((1E)-{1-allyl-5-[(4-methylbenzyl)oxy]-1H-indol-3-yl}methylidene)amino]oxy}acetic acid], for which the inhibition at 100 µM was 73%.
`CCn1cc(/C=N/OCC(=O)O)c2cc(OCc3ccc(C)cc3)ccc21` [Compound 20, {[((1E)-{1-ethyl-5-[(4-methylbenzyl)oxy]-1H-indol-3-yl}methylidene)amino]oxy}acetic acid]: the inhibition at 100 µM was 44%.
Turning to `Cc1ccc(COc2ccc3c(c2)c(/C=N/OCC(=O)O)cn3Cc2ccccc2)cc1` [Compound 21, {[((1E)-{1-benzyl-5-[(4-methylbenzyl)oxy]-1H-indol-3-yl}methylidene)amino]oxy}acetic acid], the inhibition at 100 µM came out at 80%.
For `C=CCn1cc(/C=N/OCC(=O)O)c2cc(OCc3cccc(C(F)(F)F)c3)ccc21` [Compound 22, ({[(1E)-(1-allyl-5-{[3-(trifluoromethyl)benzyl]oxy}-1H-indol-3-yl)methylidene]amino}oxy)acetic acid], the inhibition at 100 µM came to 80%.
Take `CCn1cc(/C=N/OCC(=O)O)c2cc(OCc3cccc(C(F)(F)F)c3)ccc21` [Compound 23, ({[(1E)-(1-ethyl-5-{[3-(trifluoromethyl)benzyl]oxy}-1H-indol-3-yl)methylidene]amino}oxy)acetic acid]: the inhibition at 100 µM turned out to be 56%.
Under `O=C(O)CO/N=C/c1cn(Cc2ccccc2)c2ccc(OCc3cccc(C(F)(F)F)c3)cc12` [Compound 24, ({[(1E)-(1-benzyl-5-{[3-(trifluoromethyl)benzyl]oxy}-1H-indol-3-yl)methylidene]amino}oxy)acetic acid] stands 79%; under `C=CCn1cc(/C=N/OCC(=O)O)c2cc(OCc3cccc(C)c3)ccc21` [Compound 25, {[((1E)-{1-allyl-5-[(3-methylbenzyl)oxy]-1H-indol-3-yl}methylidene)amino]oxy}acetic acid], 68%; under `CCn1cc(/C=N/OCC(=O)O)c2cc(OCc3cccc(C)c3)ccc21` [Compound 26, {[((1E)-{1-ethyl-5-[(3-methylbenzyl)oxy]-1H-indol-3-yl}methylidene)amino]oxy}acetic acid], 26%.
Take `Cc1cccc(COc2ccc3c(c2)c(/C=N/OCC(=O)O)cn3Cc2ccccc2)c1` [Compound 27, {[((1E)-{1-benzyl-5-[(3-methylbenzyl)oxy]-1H-indol-3-yl}methylidene)amino]oxy}acetic acid]: the inhibition at 100 µM came out at 99%.
Under `CCn1cc(/C=N/OCC(=O)O)c2cc(OCc3ccccc3Cl)ccc21` [Compound 28, {[((1E)-{5-[(2-chlorobenzyl)oxy]-1-ethyl-1H-indol-3-yl}methylidene)amino]oxy}acetic acid] stands 70%; under `O=C(O)CO/N=C/c1cn(Cc2ccccc2)c2ccc(OCc3ccccc3Cl)cc12` [Compound 29, {[((1E)-{1-benzyl-5-[(2-chlorobenzyl)oxy]-1H-indol-3-yl}methylidene)amino]oxy}acetic acid], 82%; under `O=C(O)CO/N=C/c1c[nH]c2ccc(OCc3ccccc3Cl)cc12` [Compound 30, {[((1E)-{5-[(2-chlorobenzyl)oxy]-1H-indol-3-yl}methylidene)amino]oxy}acetic acid], 11%.
The figure for `C#CCn1cc(/C=N/OCC(=O)O)c2cc(OCc3ccc(C(F)(F)F)cc3)ccc21` [Compound 31, ({[(1E)-(1-(2-propynyl)-5-{[4-(trifluoromethyl)benzyl]oxy}-1H-indol-3-yl)methylidene]amino}oxy)acetic acid] is 90%; for `C#CCn1cc(/C=N/OCC(=O)O)c2cc(OCc3ccc(C(C)(C)C)cc3)ccc21` [Compound 33, [({(1E)-[5-[(4-tert-butylbenzyl)oxy]-1-(2-propynyl)-1H-indol-3-yl]methylidene}amino)oxy]acetic acid] it is 91%.
On to `Cn1cc(/C=N/OCC(=O)O)c2cc(OCc3ccc(C(C)(C)C)cc3)ccc21` [Compound 34, {[((1E)-{5-[(4-tert-butylbenzyl)oxy]-1-methyl-1H-indol-3-yl}methylidene)amino]oxy}acetic acid], for which the inhibition at 100 µM amounted to 88%.
Take `C#CCn1cc(/C=N/OCC(=O)O)c2cc(OCc3cc(C(F)(F)F)cc(C(F)(F)F)c3)ccc21` [Compound 35, [({(1E)-[5-{[3,5-bis(trifluoromethyl)benzyl]oxy}-1-(2-propynyl)-1H-indol-3-yl]methylidene}amino)oxy]acetic acid]: the inhibition at 100 µM was 44%.
